# Assay results published in the supplement of paper PMC10307832.
# Tests used:
# Test in all cases: relative viability (nuclei count vs DMSO), 5 days (fraction); higher = more cells survive
# [1] = compound: CC1=C(C(=O)N2C=CSC2=N1)CCN3CCC(=C(C4=CC=CC=C4)C5=CC=C(C=C5)F)CC3 + Nc1nc2[nH]cc(CCc3ccc(C(=O)N[C@@H](CCC(=O)O)C(=O)O)cc3)c2c(=O)[nH]1 [Pemetrexed] (partner 0.2 µM)
# Outline: (§1)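 Lung cancer cell lines in 1536-well plates got either a single drug or a fixed anchor-drug dose together with five library-drug doses (not always all listed) in √10 steps, by pin tool, on the day after seeding. Nuclei were counted after 5 days, and relative viability is the treated-to-vehicle ratio of nuclei counts. Values are medians of duplicate plates.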
# [2] = compound: CC1=C(C(=O)N2C=CSC2=N1)CCN3CCC(=C(C4=CC=CC=C4)C5=CC=C(C=C5)F)CC3 + COc1cccc2cc(-c3nc([C@H]4CC[C@H](C(=O)O)CC4)n4ncnc(N)c34)[nH]c12 [OSI-027] (partner 0.5 µM)
# Outline: as §1
# [3] = compound: CC1=C(C(=O)N2C=CSC2=N1)CCN3CCC(=C(C4=CC=CC=C4)C5=CC=C(C=C5)F)CC3 + COc1cc2c(Oc3ccc(NC(=O)C4(C(=O)Nc5ccc(F)cc5)CC4)cc3F)ccnc2cc1OCCCN1CCOCC1 [Foretinib] (partner 0.25 µM)
# Outline: as §1
# [4] = compound: CC1=C(C(=O)N2C=CSC2=N1)CCN3CCC(=C(C4=CC=CC=C4)C5=CC=C(C=C5)F)CC3 + NC(=O)Nc1cc(-c2cccc(F)c2)sc1C(=O)N[C@H]1CCCNC1 [AZD7762] (partner 0.2 µM)
# Outline: as §1
Cell Line,relative viability ([1]; first compound 0.08 µM),relative viability ([1]; first compound 0.253 µM),relative viability ([1]; first compound 0.8 µM),relative viability ([1]; first compound 2.53 µM),relative viability ([1]; first compound 8 µM),relative viability ([2]; first compound 0.08 µM),relative viability ([2]; first compound 0.253 µM),relative viability ([2]; first compound 0.8 µM),relative viability ([2]; first compound 2.53 µM),relative viability ([2]; first compound 8 µM),relative viability ([3]; first compound 0.08 µM),relative viability ([3]; first compound 0.253 µM),relative viability ([3]; first compound 0.8 µM),relative viability ([3]; first compound 2.53 µM),relative viability ([3]; first compound 8 µM),relative viability ([4]; first compound 0.08 µM),relative viability ([4]; first compound 0.253 µM),relative viability ([4]; first compound 0.8 µM),relative viability ([4]; first compound 2.53 µM),relative viability ([4]; first compound 8 µM)
COR-L23,0.198,0.21,0.199,0.203,0.203,0.778,0.667,0.702,0.778,0.619,0.898,1.02,1.07,1.23,0.584,,,,,
LK-2,0.243,0.286,0.285,0.281,0.181,0.242,0.188,0.156,0.18,0.212,1.35,1.07,1.18,1.33,0.794,0.496,0.304,0.56,0.349,0.289
CAL-12T,1.31,1.21,1.32,1.57,0.765,0.826,0.718,0.603,0.586,0.428,1.17,1.04,1.29,1.23,0.691,0.605,0.751,0.576,0.699,0.503
NCI-H1437,0.338,0.371,0.323,0.35,0.235,0.978,0.879,0.836,1.08,0.631,1.23,1.32,1.31,1.34,0.841,1.25,1.32,1.21,1.14,1.04
NCI-H23,0.698,0.55,0.585,0.804,0.516,0.572,0.517,0.482,0.738,0.399,0.945,0.902,0.924,1.02,0.795,0.279,0.269,0.234,0.248,0.229
NCI-H727,,,,,,0.52,0.51,0.527,0.638,0.45,0.846,1.01,0.89,0.921,0.624,0.561,0.744,0.715,0.575,0.553
NCI-H1915,0.576,0.44,0.493,0.517,0.44,0.758,0.599,0.589,0.642,0.464,1.1,0.964,1.1,1.18,0.535,0.714,0.802,0.662,0.75,0.518
NCI-H1648,0.714,0.657,0.749,0.712,0.423,0.229,,,0.209,0.265,,,,,,0.722,0.628,0.727,0.667,0.443
NCI-H3122,0.192,0.188,0.201,0.214,0.163,0.916,1.02,1.11,1.07,0.596,1.01,1.1,0.931,0.991,0.91,0.86,1.05,0.983,1.14,0.59
HCC-827,0.253,0.237,0.251,0.268,0.235,0.761,0.776,0.842,0.833,0.62,1.11,1.08,1.05,1.13,1.01,0.16,0.214,0.236,0.224,0.209
EMC-BAC-2,0.379,0.482,0.49,0.461,0.386,0.35,0.353,0.372,0.37,0.291,0.945,0.982,0.981,1.12,0.972,1.18,0.93,1.01,1.13,1.01
NCI-H522,0.958,0.997,0.964,0.914,0.764,0.857,0.804,0.766,0.633,0.811,,,,,,0.927,0.874,0.789,0.721,0.747
NCI-H2009,1.04,1.1,1.04,1.12,0.938,0.638,0.619,0.616,0.637,0.527,1.33,1.24,1.18,1.26,1.13,,,,,
SK-LU-1,1.12,0.942,0.995,1.13,0.597,0.396,0.341,0.38,0.318,0.294,0.909,0.597,1.01,1.12,0.581,,,,,
LU99A,0.167,0.193,0.164,0.168,0.152,0.333,0.313,0.254,0.276,0.25,0.793,0.771,0.832,0.822,0.802,0.345,0.367,0.403,0.398,0.294
NCI-H1793,0.72,0.715,0.796,1.12,0.794,0.302,0.3,0.261,0.293,0.186,0.601,0.866,0.795,0.624,0.44,0.457,0.408,0.597,0.381,0.378
LC-2-ad,0.247,0.268,0.277,0.271,0.281,0.876,0.994,0.87,0.913,0.663,0.971,1.09,0.892,1.12,0.761,0.777,0.725,0.866,0.966,0.613
IA-LM,,,,,,,,,,,1.1,1.06,1.24,1.22,0.691,,,,,
NCI-H2405,1.11,,1.07,1.08,0.758,0.664,0.614,0.677,0.624,0.606,1.08,1.03,1.09,1.04,0.969,0.901,,0.725,0.74,0.55
HCC-366,0.199,0.169,0.206,0.156,0.139,1.17,1.2,1.04,1.12,0.252,0.935,1,1.01,1,0.662,0.302,0.317,0.25,0.23,0.211

Cell Line,relative viability ([1]; first compound 0.08 µM),relative viability ([1]; first compound 0.253 µM),relative viability ([1]; first compound 0.8 µM),relative viability ([1]; first compound 2.53 µM),relative viability ([1]; first compound 8 µM),relative viability ([2]; first compound 0.08 µM),relative viability ([2]; first compound 0.253 µM),relative viability ([2]; first compound 0.8 µM),relative viability ([2]; first compound 2.53 µM),relative viability ([2]; first compound 8 µM),relative viability ([3]; first compound 0.08 µM),relative viability ([3]; first compound 0.253 µM),relative viability ([3]; first compound 0.8 µM),relative viability ([3]; first compound 2.53 µM),relative viability ([3]; first compound 8 µM),relative viability ([4]; first compound 0.08 µM),relative viability ([4]; first compound 0.253 µM),relative viability ([4]; first compound 0.8 µM),relative viability ([4]; first compound 2.53 µM),relative viability ([4]; first compound 8 µM)
NCI-H2342,0.657,0.821,0.76,0.818,0.634,0.567,0.617,0.636,0.602,0.622,0.884,1.02,0.948,1.09,0.857,0.382,0.516,0.436,0.566,0.433
A-427,1.06,1.07,0.929,1.07,0.952,0.421,0.364,0.421,0.49,0.432,1.08,1.1,1.16,1.15,1,0.675,0.678,0.67,0.633,0.674
HCC-15,0.216,0.207,0.225,0.231,0.227,0.593,0.628,0.707,0.782,0.507,1.06,0.995,1.16,1.07,0.774,1.18,1.43,1.28,1.15,1.09
ABC-1,,,,,,0.547,0.394,0.434,0.372,0.266,1.03,1.18,0.958,0.869,0.635,0.751,0.746,0.791,0.766,0.677
Calu-6,,,,,,,,,,,0.93,0.93,0.863,0.898,0.707,,,,,
UMC-11,0.914,,0.8,0.945,0.632,0.591,0.469,0.504,0.48,0.351,0.948,1.07,1.08,1.18,0.692,,,,,
NCI-H1703,,,,,,,,,,,0.4,0.415,0.321,0.363,0.319,0.14,0.139,0.194,0.117,0.132
EBC-1,,,,,,,,,,,0.109,0.101,0.104,0.108,0.106,,,,,
NCI-H661,0.961,0.98,0.924,0.995,0.493,0.618,0.659,0.691,0.712,0.627,0.871,1.02,0.983,1.05,0.814,,,,,
NCI-H1792,0.523,0.543,0.606,0.626,0.293,0.596,0.643,0.789,0.566,0.485,,,,,,0.649,0.655,0.62,0.636,0.386
SW 1573,0.998,0.854,0.786,0.933,0.578,,0.645,0.716,0.676,0.351,1.07,0.829,0.814,0.947,0.72,,,,,
SK-MES-1,1.11,1.05,0.97,1.02,0.829,0.405,0.524,0.587,0.554,0.706,0.979,1.07,0.928,0.731,0.864,,,,,
NCI-H2023,0.288,0.199,0.239,0.333,0.246,0.4,0.404,0.386,0.39,0.301,0.831,0.713,0.758,0.984,0.621,,,,,
A549,,,,,,,,,,,0.954,0.982,1.03,0.97,0.763,,,,,
NCI-H1299,,,,,,,,,,,1.19,1.14,1.13,1.14,1.02,,,,,
NCI-H520,0.726,0.566,0.691,0.778,0.477,0.251,0.247,0.251,0.212,0.233,0.778,0.846,0.924,0.873,0.641,,,,,
COR-L 105,1.03,1.26,1.27,1.4,0.89,0.682,0.726,0.695,0.835,0.644,0.574,1.05,1.02,1.56,0.761,,,,,
HCC-44,0.729,0.664,0.612,0.644,0.554,0.69,0.548,,0.494,0.491,,,,,,1.04,1.04,1.08,1.17,1.06
NCI-H1650,0.335,0.348,0.352,0.461,0.337,0.539,0.736,0.583,0.561,0.353,1.09,1.12,1.15,1.21,0.65,,,,,
NCI-H2228,0.406,0.37,0.375,0.362,0.278,0.567,0.532,0.632,0.597,0.378,0.689,0.645,1.13,0.864,0.55,,,,,
